Patent US20070244097A1 (priority 2003, published 2007)

Biological target: α7 nAChR subtype (Rattus norvegicus, UniProt Q05941)
Format: binding
Settings: read-out: KD (saturation curve, one site model)

Sequence of α7 nAChR subtype (Q05941 23-502 limits assumed): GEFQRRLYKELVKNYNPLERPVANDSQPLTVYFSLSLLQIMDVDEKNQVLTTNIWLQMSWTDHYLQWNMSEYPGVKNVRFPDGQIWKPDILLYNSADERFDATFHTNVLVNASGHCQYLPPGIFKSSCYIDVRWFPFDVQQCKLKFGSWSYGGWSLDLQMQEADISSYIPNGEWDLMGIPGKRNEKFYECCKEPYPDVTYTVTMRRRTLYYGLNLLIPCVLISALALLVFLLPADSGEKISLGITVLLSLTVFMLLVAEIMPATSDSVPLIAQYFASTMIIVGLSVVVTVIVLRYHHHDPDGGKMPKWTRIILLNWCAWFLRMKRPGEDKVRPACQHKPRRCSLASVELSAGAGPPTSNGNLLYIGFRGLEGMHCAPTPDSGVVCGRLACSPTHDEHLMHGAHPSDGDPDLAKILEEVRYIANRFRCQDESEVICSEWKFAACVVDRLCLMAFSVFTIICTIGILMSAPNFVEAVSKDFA

^125I-α-Bungarotoxin [^125I-α-BTX] gave a Kd of 1.67 nM.
